Experimental data reported in article PMC11301271 (FEBS Open Bio, 2024).
“And” between values parts separate entries of the source, which are not always exact repeats. Equal entries are not always repeated. Where two headings read alike, the source gives them in different places.

Legend:
human MK [1] = target: T1, human MK (Homo sapiens, UniProt Q03426); assay: MK coupled enzyme assay (pyruvate kinase/lactate dehydrogenase): inhibitor screening and IC50; type: biochemical; conditions: for IC50: read-out: IC50 for MK inhibition; for MK inhibition, result in words: screening, 10 μM compound
T1 construct: His6 (N); made in house; host or cells: E. coli BL21(DE3)
T1 sequence (Q03426 whole entry): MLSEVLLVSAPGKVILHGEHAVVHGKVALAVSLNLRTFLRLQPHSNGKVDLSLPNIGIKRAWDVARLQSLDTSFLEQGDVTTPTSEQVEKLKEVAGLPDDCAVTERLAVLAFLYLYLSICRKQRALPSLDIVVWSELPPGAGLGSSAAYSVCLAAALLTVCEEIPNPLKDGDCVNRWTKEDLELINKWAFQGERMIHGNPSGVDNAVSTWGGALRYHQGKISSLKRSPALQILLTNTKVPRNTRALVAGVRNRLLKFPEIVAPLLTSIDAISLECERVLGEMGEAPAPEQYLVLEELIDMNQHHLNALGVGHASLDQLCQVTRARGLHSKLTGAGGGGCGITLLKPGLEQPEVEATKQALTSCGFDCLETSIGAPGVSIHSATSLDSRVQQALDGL
Procedure: A pET‐15b plasmid encoding human MK (UniProt Q03426) with an N‐terminal His6‐tag was transformed into E. coli BL21(DE3) cells (New England Biolabs, Whitby, ON, Canada). The cells were cultured in LB at 37 °C until the OD600 of the culture reached 0.6. Expression of the recombinant enzyme was induced by 0.1 mM IPTG for 6 h at 37 °C. The cells were lysed by sonication, and the lysate was subjected to Ni‐affinity chromatography (HisTrap HP, Cytiva, Vancouver, BC, Canada) followed by size exclusion chromatography (HiLoad Superdex 200 PG, Cytiva) (Fig. 2A). […] The purified enzyme was flash‐frozen in liquid nitrogen and stored at −80 °C. The final sample buffer (i.e., the size exclusion buffer) consisted of 10 mM HEPES (pH 7.5), 500 mM NaCl, 2 mM β‐mercaptoethanol, and 5% glycerol.
(§1) MK activity was measured by using a coupled enzyme assay as previously described. The reporter enzymes, pyruvate kinase and lactate dehydrogenase, were purchased as a pre‐mixed buffered solution from MilliporeSigma. […] All reactions were carried out at 32 °C in triplicate unless otherwise noted. Each reaction was initiated by adding 10 μL of MK (50 μg mL^−1; diluted from the −80 °C stock in 50 mM HEPES, pH 7.5) to 990 μL of the reaction buffer containing all the other components except MK (pre‐incubated at 32 °C for 5 min) and immediately transferring to a 1 mL disposable polystyrene cuvette (Fisherbrand) pre‐placed in the temperature‐controlled cell holder of an Agilent 8453 UV–visible Spectroscopy System. Blank reactions were added with 10 μL of 50 mM HEPES (pH 7.5) only. Reaction progress was continuously monitored by measuring the A340 for 1 min. To convert the measured absorbance to product concentration, an absorption coefficient of NADH determined from a calibration curve (5.4107 cm^−1 mM ^−1) was used. Initial rate experiments were conducted by varying the concentration of one substrate while keeping the other at a saturating concentration of 5 mM. Kinetic parameters were determined by fitting the rate data to the Michaelis–Menten model (Eqn 1), vi=VmaxS/Km+S, where [S] represents the concentration of the varied substrate. Data analysis was performed with […] PRISM software (GraphPad Software, Boston, MA, USA).
To prepare master stock solutions, the phosphonate compounds were dissolved in Milli‐Q water to a concentration of 20 mM, either as monosodium salts (monophosphonate compounds) or as trisodium salts (bisphosphonate compounds). Their effects on MK activity were evaluated by using the coupled enzyme assay described above. Each compound was tested at two concentrations: 1 and 10 μM.
To determine the IC 50, a more refined inhibition response across a broader range of inhibitor concentrations was measured. Typically, nine different inhibitor concentrations spanning a 10 000‐fold concentration range were used. Dose–response curves were generated by fitting the inhibition data to the following three‐parameter dose–response equation (Eqn 2), where Max and Min denote the maximum and minimum response, respectively: Response=Min+Max−Min/1+I/IC50.

human MK [2] = target: T1, human MK; design: method as in PMID 9325256, PMID 18302342; conditions: ref [19], [20]; read-out: Km of MK for the substrate, previously reported; cited from earlier work
human MK [3] = target: T1, human MK; assay: Steady-state kinetics of human MK (Michaelis-Menten, substrates); type: biochemical; conditions: one substrate varied, the other fixed at 5 mM; 32 °C; read-out: Km of recombinant MK for the substrate
human MK [4] = target: T1, human MK; assay: Mode of inhibition and Ki determination, initial rate experiments with MK; type: biochemical; conditions: for Ki' (ATP-bound enzyme), mixed inhibition model with respect to ATP: ATP varied 0.05-1 mM, MVA 5 mM; for Ki', uncompetitive inhibition model with respect to MVA: MVA varied 0.01-0.2 mM, ATP 5 mM
Procedure: as §1
In all experiments, one substrate was added at a constant concentration of 5 mM. […] Each inhibitor was tested at four different concentrations ranging from 0 to 200 nM. Data analysis was performed with […] PRISM software. The initial rates were fitted to steady‐state equations describing competitive inhibition model (Eqn 3), vi=VmaxS/Km1+I/Ki+S, noncompetitive inhibition model (Eqn 4), vi=VmaxS/1+I/Ki/Km+S, uncompetitive inhibition model (Eqn 5), vi=VmaxS/1+I/Ki^′/Km/1+I/Ki^′+S, and mixed inhibition model (Eqn 6), vi=VmaxS/1+I/Ki^′/Km1+I/Ki/1+I/Ki^′+S, where [S] represents the concentration of the varied substrate. The selection of the most appropriate models was determined through the extra sum‐of‐squares F test as implemented in the software.

FPPS [5] = target: T2, FPPS (Homo sapiens, UniProt P14324); assay: Inhibition of FPPS; type: biochemical; conditions: read-out: inhibition of FPPS at 10 μM; 10 μM compound; unpublished data
T2 sequence (P14324 1-419): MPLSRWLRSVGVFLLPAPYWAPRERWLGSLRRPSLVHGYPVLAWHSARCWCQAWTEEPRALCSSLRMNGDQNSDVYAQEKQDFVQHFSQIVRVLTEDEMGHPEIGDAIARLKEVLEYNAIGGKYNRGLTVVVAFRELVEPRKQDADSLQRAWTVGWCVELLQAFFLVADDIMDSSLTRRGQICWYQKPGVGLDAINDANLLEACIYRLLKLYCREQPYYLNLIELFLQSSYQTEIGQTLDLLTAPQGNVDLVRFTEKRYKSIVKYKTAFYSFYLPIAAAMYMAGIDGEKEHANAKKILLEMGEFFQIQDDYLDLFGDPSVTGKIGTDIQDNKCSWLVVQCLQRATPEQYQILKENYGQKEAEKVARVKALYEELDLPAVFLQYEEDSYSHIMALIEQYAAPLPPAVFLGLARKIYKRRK

FPPS [6] = target: T2, FPPS; conditions: read-out: Kd, binding affinity of FPP for FPPS; ref [21]; cited from earlier work

`Cc1ccc(-c2cc3c(NC(Cc4ccccc4)P(=O)(O)O)ncnc3s2)cc1OC1CC1` (stereo not drawn) [Compound 10, (1‐((6‐(3‐Cyclopropoxy‐4‐methylphenyl)thieno[2,3‐d]pyrimidin‐4‐yl)amino)‐2‐phenylethyl)phosphonic acid] showed an IC50 (human MK [1]) of 1.6 µM.
Work on `COc1cc(C)c(Cl)cc1-c1cc2c(NC(c3ccccc3)P(=O)(O)O)ncnc2s1` (stereo not drawn) [Compound 2] yielded an IC50 (human MK [1]) of 1.9 µM.
In the case of `C[C@@](O)(CCO)CC(=O)O` [MVA, mevalonic acid], the Km (human MK [2]) is given as 24 µM and 40.8 µM and the Km (human MK [3]) is given as 37 µM.
`Cc1ccc(-c2cc3c(NC(Cc4ccccc4)P(=O)(O)O)ncnc3s2)cc1Cl` (stereo not drawn) [Compound 6] showed an IC50 (human MK [1]) of 2.5 µM.
Work on `Nc1ncnc2c1ncn2[C@@H]1O[C@H](COP(=O)(O)OP(=O)(O)OP(=O)(O)O)[C@@H](O)[C@H]1O` [ATP] yielded a Km (human MK [3]) of 61 µM.
In the case of `Cc1ccc(-c2cc3c(NC(Cc4cccc(F)c4)P(=O)(O)O)ncnc3s2)cc1OCC(C)C` (stereo not drawn) [Compound 9, (2‐(3‐Fluorophenyl)‐1‐((6‐(3‐isobutoxy‐4‐methylphenyl)thieno[2,3‐d]pyrimidin‐4‐yl)amino)ethyl)phosphonic acid], the IC50 (human MK [1]) is reported as 1 µM.
In the case of `Cn1cc(CCP(=O)(O)O)c2cc(-c3ccc(C(F)(F)F)cc3)ccc21` [Compound 16, 2‐(1‐Methyl‐5‐(4‐(trifluoromethyl)phenyl)‐1H‐indol‐3‐yl)ethylphosphonic acid], the Ki (human MK [4]) is reported as 0.0031 µM, the “Ki' (ATP-bound enzyme), mixed inhibition model with respect to ATP” value (human MK [4]) is reported as 0.014 µM and the “Ki', uncompetitive inhibition model with respect to MVA” value (human MK [4]) is reported as 0.01 µM. For the same molecule, the inhibition at 10 µM (FPPS [5]) was less than 50% and the IC50 (human MK [1]) was 0.0081 µM.
With `O=P(O)(O)CNc1ncnc2sccc12` [Compound 1] the “MK inhibition, result in words” value (human MK [1]) was “Inactive at 10 μM”.
For `CC(C)=CCC/C(C)=C/CC/C(C)=C/CO[P@@](=O)(O)OP(=O)(O)O` (stereo in doubt) [FPP, farnesyl pyrophosphate, reference compound], the IC50 (human MK [1]) is listed as 0.012 µM and the Kd (FPPS [6]) is listed as 5 to 6 µM.
For `O=P(O)(O)C(Nc1ncnc2sc(-c3cccc(C(F)(F)F)c3)cc12)P(=O)(O)O` [Compound 17], the “MK inhibition, result in words” value (human MK [1]) was “Inactive at 10 μM”.
In the case of `O=P(O)(O)C(Nc1ncnc2sc(-c3ccc(C(F)(F)F)cc3)cc12)c1ccccc1` (stereo not drawn) [Compound 11, (phenyl((6‐(4‐(trifluoromethyl)phenyl)thieno[2,3‐d]pyrimidin‐4‐yl)amino)methyl)phosphonic acid], the Ki (human MK [4]) is reported as 0.022 µM, the “Ki'/Ki ratio” value (human MK [4]; ATP as varied substrate, mixed inhibition model) is reported as ~ 17 and the “Ki' (ATP-bound enzyme), mixed inhibition model with respect to ATP” value (human MK [4]) is reported as 0.38 µM. For the same molecule, the “Ki', uncompetitive inhibition model with respect to MVA” value (human MK [4]) was 0.14 µM, the inhibition at 10 µM (FPPS [5]) was less than 50% and the IC50 (human MK [1]) was 0.042 µM.
Molecule `O=P(O)(O)C(Nc1ncnc2sc(-c3cccc(C(F)(F)F)c3)cc12)c1ccccc1` (stereo not drawn) [Compound 14, (phenyl((6‐(3‐(trifluoromethyl)phenyl)thieno[2,3‐d]pyrimidin‐4‐yl)amino)methyl)phosphonic acid] has an IC50 (human MK [1]) of 0.12 µM.
With `COc1cccc(OC)c1-c1cc2c(NC(c3ccccc3)P(=O)(O)O)ncnc2s1` (stereo not drawn) [Compound 13, (((6‐(2,6‐dimethoxyphenyl)thieno[2,3‐d]pyrimidin‐4‐yl)amino)(phenyl)methyl)phosphonic acid] the IC50 (human MK [1]) was 3.3 µM.
`COc1cc(C)c(F)cc1-c1cc2c(NC(c3ccccc3)P(=O)(O)O)ncnc2s1` (stereo not drawn) [Compound 15] showed an IC50 (human MK [1]) of 2.3 µM.
`CC(C)=CCC/C(C)=C/CC/C(C)=C/COP(=O)(O)OP(=O)(O)O` [FPP, farnesyl pyrophosphate, reference compound] showed an inhibition at 1 µM (human MK [1]; read-out: inhibition of the MK reaction at 1 μM) of 96%.
For `O=P(O)(O)C(Nc1ncnc2sc(-c3ccc(F)cc3)cc12)c1ccccc1` (stereo not drawn) [Compound 12, (((6‐(4‐fluorophenyl)thieno[2,3‐d]pyrimidin‐4‐yl)amino)(phenyl)methyl)phosphonic acid], the IC50 (human MK [1]) was 0.046 µM.
